Laboratory results from patent US11840533B2, “Pyridinone-based epigenetic modifiers and uses thereof” (THE BOARD OF TRUSTEES OF THE UNIVERSITY OF ILLINOIS, priority 2017, dated 2023).

tested on: fulvestrant-resistant MCF7:5C-FR cells; experiment: Fulvestrant-resistant breast cancer cell viability (cell proliferation) assay; type: cell-based; conditions: 120 h, growth inhibition in fulvestrant-resistant MCF-7:CFR cells, 120 hrs
Method: For the cell proliferation assay, the fulvestrant-resistant MCF7:5C-FR cells were seeded at about 2000 to about 2500/well in 96-well plates. The next day, compounds were add to the cells at desired serial concentrations form 3 nM to 10 uM. A final 0.1% (v/v) DMSO was used as vehicle control and 1 uM JQ1 was used as positive. The cell were grown in the normal culture condition for 120 hrs. Then the Hoechst 33342 dye were add to each well at a final concentration of 5 μg/ml, and put back to the incubator at 37 C for 90 min. The plates were scanned immediately after the incubation with Celigo (Nexcelcom Biocesnse) for the fluorescence of the nuclear using DAPI channel, and the cell number was counted thought the analysis function of the Celigo software. The normalized cell number to the vehicle control was used to represent the cell proliferation. […] N.D.=Not determined.

`Cn1cc(-c2cc(NS(C)(=O)=O)c3ncn(Cc4ccc(F)cc4)c3c2)c2ccnc(O)c21` [Compound 38, N-(1-(4-fluorobenzyl)-6-(7-hydroxy-1-methyl-1H-pyrrolo[2,3-c]pyridin-3-yl)-1H-benzo[d]imidazol-4-yl)methanesulfonamide] and `Cn1cc(-c2nc3c(NS(C)(=O)=O)cccc3n2Cc2ccc(F)cc2)c2ccnc(O)c21` [Compound 39, N-(1-(4-fluorobenzyl)-2-(7-hydroxy-1-methyl-1H-pyrrolo[2,3-c]pyridin-3-yl)-1H-benzo[d]imidazol-4-yl)methanesulfonamide] cannot be ordered by IC50: < 200 nM for the first, < 1000 nM for the second.

`CCS(=O)(=O)Nc1cccc2c1nc(-c1cn(C)c3c(O)nccc13)n2Cc1ccc(F)cc1` [Compound 40, N-(1-(4-fluorobenzyl)-2-(7-hydroxy-1-methyl-1H-pyrrolo[2,3-c]pyridin-3-yl)-1H-benzo[d]imidazol-4-yl)ethanesulfonamide] and `CCS(=O)(=O)Nc1cccc2c1nc(-c1cn(C)c3c(O)nccc13)n2Cc1ccc(N(C)C)cc1` [Compound 66, N-(1-(4-(dimethylamino)benzyl)-2-(7-hydroxy-1-methyl-1H-pyrrolo[2,3-c]pyridin-3-yl)-1H-benzo[d]imidaol-4-yl)ethanesulfonamide] cannot be ordered by IC50: < 1000 nM for the first, > 100 nM for the second.

`CCS(=O)(=O)Nc1cccc2c1nc(-c1cn(C)c3c(O)nccc13)n2Cc1ccc(F)cc1C` [Compound 41, N-(1-(4-fluoro-2-methylbenzyl)-2-(7-hydroxy-1-methyl-1H-pyrrolo[2,3-c]pyridin-3-yl)-1H-benzo[d]imidazol-4-yl)ethanesulfonamide] and `CCS(=O)(=O)Nc1cccc2c1nc(-c1cn(C)c3c(O)nccc13)n2Cc1ccc(F)cc1F` [Compound 43, N-(1-(2,4-difluorobenzyl)-2-(7-hydroxy-1-methyl-1H-pyrrolo[2,3-c]pyridin-3-yl)-1H-benzo[d]imidazol-4-yl)ethanesulfonamide] cannot be ordered by IC50: < 1000 nM for the first, < 1000 nM for the second.

`CCS(=O)(=O)Nc1cccc2c1nc(-c1cn(C)c3c(O)nccc13)n2Cc1c(C)cc(F)cc1C` [Compound 42, N-(1-(4-fluoro-2,6-dimethylbenzyl)-2-(7-hydroxy-1-methyl-1H-pyrrolo[2,3-c]pyridin-3-yl)-1H-benzo[d]imidazol-4-yl)ethanesulfonamide] and `CCS(=O)(=O)Nc1cccc2c1nc(-c1cn(C)c3c(O)nccc13)n2Cc1ccccc1` [Compound 60, N-(1-benzyl-2-(7-hydroxy-1-methyl-1H-pyrrolo[2,3-c]pyridin-3-yl)-1H-benzo[d]imidazol-4-yl)ethanesulfonamide] cannot be ordered by IC50: < 1000 nM for the first, > 100 nM for the second.

`CCS(=O)(=O)Nc1cc(-c2cn(C)c3c(O)nccc23)cc2c1cnn2Cc1cccc2ccsc12` [Compound 44, N-(1-(benzo[b]thiophen-7-ylmethyl)-6-(7-hydroxy-1-methyl-1H-pyrrolo[2,3-c]pyridin-3-yl)-1H-indazol-4-yl)ethanesulfonamide] and `CCS(=O)(=O)Nc1cc(-c2cn(C)c3c(O)nccc23)cc2c1ccn2Cc1cccc2ccsc12` [Compound 53, N-(1-(benzo[b]thiophen-7-ylmethyl)-6-(7-hydroxy-1-methyl-1H-pyrrolo[2,3-c]pyridin-3-yl)-1H-indol-4-yl)ethanesulfonamide] cannot be ordered by IC50: > 100 nM for the first, < 1000 nM for the second.

`CCS(=O)(=O)Nc1cc(-c2cn(C)c3c(O)nccc23)cc2c1cnn2Cc1cccc2c1ccn2C` [Compound 45, N-(6-(7-hydroxy-1-methyl-1H-pyrrolo[2,3-c]pyridin-3-yl)-1-((1-methyl-1H-indol-4-yl)methyl)-1H-indazol-4-yl)ethanesulfonamide] and `CCS(=O)(=O)Nc1cc(-c2cn(C)c3c(O)nccc23)cc2c1ccn2Cc1cccc(F)c1F` [Compound 48, N-(1-(2,3-difluorobenzyl)-6-(7-hydroxy-1-methyl-1H-pyrrolo[2,3-c]pyridin-3-yl)-1H-indol-4-yl)ethanesulfonamide] cannot be ordered by IC50: > 100 nM for the first, < 1000 nM for the second.

`Cn1cc(-c2cc(NS(=O)(=O)C3CC3)c3cnn(Cc4ccccc4)c3c2)c2ccnc(O)c21` [Compound 46, N-(1-benzyl-6-(7-hydroxy-1-methyl-1H-pyrrolo[2,3-c]pyridin-3-yl)-1H-indazol-4-yl)cyclopropanesulfonamide] and `CCS(=O)(=O)Nc1cc(-c2cn(C)c3c(O)nccc23)cc2c1ccn2Cc1ccccc1` [Compound 49, N-(1-benzyl-6-(7-hydroxy-1-methyl-1H-pyrrolo[2,3-c]pyridin-3-yl)-1H-indol-4-yl)ethanesulfonamide] cannot be ordered by IC50: < 1000 nM for the first, < 1000 nM for the second.

`CCS(=O)(=O)Nc1cc(-c2cn(C)c3c(O)nccc23)cc2c1ccn2Cc1cccc(Cl)c1Cl` [Compound 47, N-(1-(2,3-dichlorobenzyl)-6-(7-hydroxy-1-methyl-1H-pyrrolo[2,3-c]pyridin-3-yl)-1H-indol-4-yl)ethanesulfonamide] and `CCS(=O)(=O)Nc1cc(-c2cn(C)c3c(O)nccc23)cc2c1ccn2Cc1cc(Cl)ccc1Cl` [Compound 52, N-(1-(2,5-dichlorobenzyl)-6-(7-hydroxy-1-methyl-1H-pyrrolo[2,3-c]pyridin-3-yl)-1H-indol-4-yl)ethanesulfonamide] cannot be ordered by IC50: < 1000 nM for the first, < 1000 nM for the second.

`CCS(=O)(=O)Nc1cc(-c2cn(C)c3c(O)nccc23)cc2c1ccn2Cc1ccc(Cl)c(Cl)c1` [Compound 50, N-(1-(3,4-dichlorobenzyl)-6-(7-hydroxy-1-methyl-1H-pyrrolo[2,3-c]pyridin-3-yl)-1H-indol-4-yl)ethanesulfonamide] and `CCS(=O)(=O)Nc1cc(-c2cn(C)c3c(O)nccc23)cc2c1ccn2Cc1ccc(O)c(Cl)c1` [Compound 54, N-(1-(3-chloro-4-hydroxybenzyl)-6-(7-hydroxy-1-methyl-1H-pyrrolo[2,3-c]pyridin-3-yl)-1H-indol-4-yl)ethanesulfonamide] cannot be ordered by IC50: < 1000 nM for the first, > 100 nM for the second.

`CCS(=O)(=O)Nc1cc(-c2cn(C)c3c(O)nccc23)cc2c1ccn2Cc1cc(Cl)ccc1OC` [Compound 51, N-(1-(5-chloro-2-methoxybenzyl)-6-(7-hydroxy-1-methyl-1H-pyrrolo[2,3-c]pyridin-3-yl)-1H-indol-4-yl)ethanesulfonamide] and `CCS(=O)(=O)Nc1cc(-c2cn(C)c3c(O)nccc23)cc2c1ccn2Cc1cc(Cl)c(O)cc1C` [Compound 55, N-(1-(5-chloro-4-hydroxy-2-methylbenzyl)-6-(7-hydroxy-1-methyl-1H-pyrrolo[2,3-c]pyridin-3-yl)-1H-indol-4-yl)ethanesulfonamide] cannot be ordered by IC50: < 1000 nM for the first, > 100 nM for the second.

`CCS(=O)(=O)Nc1cc(-c2cn(C)c3c(O)nccc23)cc2c1ccn2Cc1cc(Cl)cc(OCCN(C)C)c1` [Compound 56, N-(1-(3-chloro-5-(2-(dimethylamino)ethoxy)benzyl)-6-(7-hydroxy-1-methyl-1H-pyrrolo[2,3-c]pyridin-3-yl)-1H-indol-4-yl)ethanesulfonamide] and `CCS(=O)(=O)Nc1cc(-c2cn(C)c3c(O)nccc23)cc2c1ccn2Cc1cc(Cl)cc(CCN(C)C)c1` [Compound 57, N-(1-(3-chloro-5-(2-(dimethylamino)ethyl)benzyl)-6-(7-hydroxy-1-methyl-1H-pyrrolo[2,3-c]pyridin-3-yl)-1H-indol-4-yl)ethanesulfonamide] cannot be ordered by IC50: > 100 nM for the first, > 100 nM for the second.

`CCS(=O)(=O)Nc1cc(-c2cn(C)c3c(O)nccc23)cc2c1ccn2Cc1ccc(C#N)cc1` [Compound 58, N-(1-(4-cyanobenzyl)-6-(7-hydroxy-1-methyl-1H-pyrrolo[2,3-c]pyridin-3-yl)-1H-indol-4-yl)ethanesulfonamide] and `CCS(=O)(=O)Nc1cc(-c2cn(C)c3c(O)nccc23)cc2c1ccn2Cc1ccccc1C(F)(F)F` [Compound 59, N-(6-(7-hydroxy-1-methyl-1H-pyrrolo[2,3-c]pyridin-3-yl)-1-(2-(trifluoromethyl)benzyl)-1H-indol-4-yl)ethanesulfonamide] cannot be ordered by IC50: < 1000 nM for the first, > 100 nM for the second.

`CCS(=O)(=O)Nc1cccc2c1nc(-c1cn(C)c3c(O)nccc13)n2Cc1ccccc1C(F)(F)F` [Compound 62, N-(2-(7-hydroxy-1-methyl-1H-pyrrolo[2,3-c]pyridin-3-yl)-1-(2-(trifluoromethyl)benzyl)-1H-benzo[d]imidaol-4-yl)ethanesulfonamide] and `Cn1cc(-c2nc3c(NS(C)(=O)=O)cccc3n2[C@H](c2ccccc2)C2CCOCC2)c2ccnc(O)c21` [Compound 67, (S)-N-(2-(7-hydroxy-1-methyl-1H-pyrrolo[2,3-c]pyridin-3-yl)-1-(phenyl(tetrahydro-2H-pyran-4-yl)methyl)-1H-benzo[d]imidaol-4-yl)methanesulfonamide] cannot be ordered by IC50: > 100 nM for the first, < 1000 nM for the second.

`CCS(=O)(=O)Nc1cc(-c2cn(C)c3c(O)nccc23)cc2c1cnn2C(C)(c1ccccn1)c1ccccn1` [Compound 63, N-(1-(1,1-di(pyridin-2-yl)ethyl)-6-(7-hydroxy-1-methyl-1H-pyrrolo[2,3-c]pyridin-3-yl)-1H-indazol-4-yl)ethanesulfonamide] and `CCS(=O)(=O)Nc1cc(-c2cn(C)c3c(O)nccc23)cc2c1ncn2[C@H](c1ccccc1)C1CCOCC1` [Compound 64, (S)-N-(6-(7-hydroxy-1-methyl-1H-pyrrolo[2,3-c]pyridin-3-yl)-1-(phenyl(tetrahydro-2H-pyran-4-yl)methyl)-1H-benzo[d]imidaol-4-yl)ethanesulfonamide] cannot be ordered by IC50: < 1000 nM for the first, < 1000 nM for the second.

`Cn1cc(-c2nc3c(NS(C)(=O)=O)cccc3n2[C@@H](c2ccccc2)C2CCOCC2)c2ccnc(O)c21` [Compound 68, (R)-N-(2-(7-hydroxy-1-methyl-1H-pyrrolo[2,3-c]pyridin-3-yl)-1-(phenyl(tetrahydro-2H-pyran-4-yl)methyl)-1H-benzo[d]imidaol-4-yl)methanesulfonamide] was tested, and the IC50 was < 1000 nM.
